Source: ChEMBL document CHEMBL1138996, “Biological evaluation of isothiazoloquinolones containing aromatic heterocycles at the 7-position: In vitro activity of a series of potent antibacterial agents that are effective against methicillin-resistant Staphylococcus aureus” (Bioorg Med Chem Lett, 2006)
pIC50: −log10 of the molar value. Converted amounts (≈) assume the structure as drawn.

Experiments:
Staphylococcus aureus [1] = test: Antibacterial activity against methicillin-resistant Staphylococcus aureus ATCC 700699; format: functional
Escherichia coli = test: Antibacterial activity against Escherichia coli ATCC 25922; format: functional
HEp-2 = test: Cytotoxicity against Hep2 cell line; format: functional; conditions: Homo sapiens
Staphylococcus aureus [2] = test: Antibacterial activity against Staphylococcus aureus ATCC 29213; format: functional
[3] = molecular target: DNA topoisomerase 4 subunit A (Staphylococcus aureus, UniProt P0C1U9); test: Inhibitory activity against Staphylococcus aureus ATCC 29213 wild type Topo 4
DNA topoisomerase 4 subunit A, sequence (P0C1U9 whole entry): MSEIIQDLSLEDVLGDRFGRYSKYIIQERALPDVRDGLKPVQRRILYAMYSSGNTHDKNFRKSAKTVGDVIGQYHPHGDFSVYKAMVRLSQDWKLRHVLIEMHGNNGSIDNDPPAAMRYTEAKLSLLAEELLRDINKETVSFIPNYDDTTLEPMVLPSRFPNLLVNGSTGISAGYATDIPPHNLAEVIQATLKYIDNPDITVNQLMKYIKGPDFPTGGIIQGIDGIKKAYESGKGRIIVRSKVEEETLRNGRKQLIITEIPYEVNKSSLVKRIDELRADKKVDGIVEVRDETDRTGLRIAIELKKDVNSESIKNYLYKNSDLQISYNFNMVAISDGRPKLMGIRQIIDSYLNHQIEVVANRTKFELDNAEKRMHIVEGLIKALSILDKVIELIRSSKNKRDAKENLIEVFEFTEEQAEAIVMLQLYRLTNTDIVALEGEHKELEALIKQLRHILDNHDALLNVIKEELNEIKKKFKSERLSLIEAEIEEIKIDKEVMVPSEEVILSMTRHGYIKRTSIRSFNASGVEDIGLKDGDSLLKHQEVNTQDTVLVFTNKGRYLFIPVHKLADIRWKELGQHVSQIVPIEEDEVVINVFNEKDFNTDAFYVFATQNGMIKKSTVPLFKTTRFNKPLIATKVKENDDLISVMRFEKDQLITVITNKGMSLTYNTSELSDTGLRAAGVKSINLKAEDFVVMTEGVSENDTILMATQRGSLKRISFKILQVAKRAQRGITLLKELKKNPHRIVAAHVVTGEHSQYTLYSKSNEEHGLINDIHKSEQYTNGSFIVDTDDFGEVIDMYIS

Streptococcus pyogenes = test: Antibacterial activity against Streptococcus pyogenes ATCC 19615; format: functional
Moraxella catarrhalis = test: Antibacterial activity against Moraxella catarrhalis ATCC 8176; format: functional
Enterococcus faecium = test: Antibacterial activity against Enterococcus faecium ATCC 49032; format: functional
Enterococcus faecalis = test: Antibacterial activity against Enterococcus faecalis ATCC 29212; format: functional
Streptococcus pneumoniae = test: Antibacterial activity against Streptococcus pneumoniae ATCC 49619; format: functional
Haemophilus influenzae = test: Antibacterial activity against Haemophilus influenzae type b ACH-0056; format: functional
Klebsiella pneumoniae = test: Antibacterial activity against Klebsiella pneumoniae ATCC 13883; format: functional
Pseudomonas aeruginosa = test: Antibacterial activity against Pseudomonas aeruginosa ATCC 27853; format: functional
[4] = test system: Stenotrophomonas maltophilia; test: Antibacterial activity against Stenotrophomonas maltophilia ATCC 13637; format: functional
Salmonella typhimurium = test: Antibacterial activity against Salmonella Typhimurium ATCC 14028; format: functional, Salmonella enterica subsp. enterica serovar Typhimurium; conditions: Salmonella enterica

SMILES	MIC (Staphylococcus aureus [1]) [mg/L]	MIC (Escherichia coli) [mg/L]	CC50 (HEp-2) [µM]	MIC (Staphylococcus aureus [2]) [mg/L]	pIC50 [3]	MIC (Streptococcus pyogenes) [mg/L]	MIC (Moraxella catarrhalis) [mg/L]	MIC (Enterococcus faecium) [mg/L]	MIC (Enterococcus faecalis) [mg/L]	MIC (Streptococcus pneumoniae) [mg/L]	MIC (Haemophilus influenzae) [mg/L]	MIC (Klebsiella pneumoniae) [mg/L]	MIC (Pseudomonas aeruginosa) [mg/L]	MIC [4] [mg/L]	MIC (Salmonella typhimurium) [mg/L]
O=c1[nH]sc2c1c(=O)c1cc(F)c(-c3ccc[nH]3)cc1n2C1CC1	16 (≈ 46.9 µM)	1 (≈ 2.93 µM)	23	0.06 (≈ 0.176 µM)	5.00	–	–	–	–	–	–	–	–	–	–
O=c1[nH]sc2c1c(=O)c1cc(F)c(-c3ccncc3)cc1n2C1CC1	1 (≈ 2.83 µM)	0.028 (≈ 0.0792 µM)	–	0.0035 (≈ 0.0099 µM)	5.66	–	–	–	–	–	–	–	–	–	–
O=c1[nH]sc2c1c(=O)c1cc(F)c(-c3cnc4ccccc4c3)cc1n2C1CC1	8 (≈ 19.8 µM)	0.13 (≈ 0.322 µM)	> 100	0.011 (≈ 0.0273 µM)	4.30	–	–	–	–	–	–	–	–	–	–
O=c1[nH]sc2c1c(=O)c1cc(F)c(-c3cnccn3)cc1n2C1CC1	> 64	1 (≈ 2.82 µM)	> 91	0.12 (≈ 0.339 µM)	4.19	–	–	–	–	–	–	–	–	–	–
O=c1[nH]sc2c1c(=O)c1cc(F)c(-c3cncc4ccccc34)cc1n2C1CC1	8 (≈ 19.8 µM)	0.48 (≈ 1.19 µM)	51	0.028 (≈ 0.0694 µM)	< 4.42	–	–	–	–	–	–	–	–	–	–
COc1cncc(-c2cc3c(cc2F)c(=O)c2c(=O)[nH]sc2n3C2CC2)c1	4 (≈ 10.4 µM)	0.061 (≈ 0.159 µM)	34	0.03 (≈ 0.0782 µM)	4.68	–	–	–	–	–	–	–	–	–	–
O=c1[nH]sc2c1c(=O)c1cc(F)c(-c3ccc4[nH]ccc4c3)cc1n2C1CC1	2 (≈ 5.11 µM)	0.059 (≈ 0.151 µM)	> 82	0.004 (≈ 0.0102 µM)	< 4.40	–	–	–	–	–	–	–	–	–	–
COc1ncc(-c2cc3c(cc2F)c(=O)c2c(=O)[nH]sc2n3C2CC2)c(OC)n1	1 (≈ 2.41 µM)	0.14 (≈ 0.338 µM)	> 100	0.019 (≈ 0.0458 µM)	4.38	0.079 (≈ 0.191 µM)	0.021 (≈ 0.0507 µM)	0.17 (≈ 0.41 µM)	0.058 (≈ 0.14 µM)	0.079 (≈ 0.191 µM)	0.14 (≈ 0.338 µM)	0.5 (≈ 1.21 µM)	> 64	2 (≈ 4.83 µM)	0.125 (≈ 0.302 µM)
O=c1[nH]sc2c1c(=O)c1cc(F)c(-c3cccc4ncccc34)cc1n2C1CC1	2 (≈ 4.96 µM)	0.016 (≈ 0.0397 µM)	–	0.016 (≈ 0.0397 µM)	4.48	0.25 (≈ 0.62 µM)	0.0081 (≈ 0.0201 µM)	0.25 (≈ 0.62 µM)	0.125 (≈ 0.31 µM)	0.061 (≈ 0.151 µM)	0.028 (≈ 0.0694 µM)	0.5 (≈ 1.24 µM)	2 (≈ 4.96 µM)	4 (≈ 9.91 µM)	0.5 (≈ 1.24 µM)
Cc1ccc(-c2cc3c(cc2F)c(=O)c2c(=O)[nH]sc2n3C2CC2)cn1	1 (≈ 2.72 µM)	0.037 (≈ 0.101 µM)	31	0.0037 (≈ 0.0101 µM)	5.07	–	–	–	–	–	–	–	–	–	–
O=c1[nH]sc2c1c(=O)c1cc(F)c(-c3ccc(-n4cccc4)nc3)cc1n2C1CC1	4 (≈ 9.56 µM)	1 (≈ 2.39 µM)	> 100	0.029 (≈ 0.0693 µM)	4.74	–	–	–	–	–	–	–	–	–	–
COc1ccncc1-c1cc2c(cc1F)c(=O)c1c(=O)[nH]sc1n2C1CC1	4 (≈ 10.4 µM)	0.25 (≈ 0.652 µM)	50	0.023 (≈ 0.06 µM)	5.00	–	–	–	–	–	–	–	–	–	–
Cn1ccc2cc(-c3cc4c(cc3F)c(=O)c3c(=O)[nH]sc3n4C3CC3)ccc21	8 (≈ 19.7 µM)	1 (≈ 2.47 µM)	> 100	0.065 (≈ 0.16 µM)	5.44	–	–	–	–	–	–	–	–	–	–
O=c1[nH]sc2c1c(=O)c1cc(F)c(-c3ccnc(F)c3)cc1n2C1CC1	1 (≈ 2.69 µM)	0.059 (≈ 0.159 µM)	> 100	0.0074 (≈ 0.0199 µM)	4.72	–	–	–	–	–	–	–	–	–	–
O=c1[nH]sc2c1c(=O)c1cc(F)c(-c3ccc(F)nc3)cc1n2C1CC1	2 (≈ 5.39 µM)	0.03 (≈ 0.0808 µM)	> 100	0.015 (≈ 0.0404 µM)	4.92	0.059 (≈ 0.159 µM)	0.0037 (≈ 0.00996 µM)	0.11 (≈ 0.296 µM)	0.125 (≈ 0.337 µM)	0.125 (≈ 0.337 µM)	0.03 (≈ 0.0808 µM)	0.125 (≈ 0.337 µM)	0.5 (≈ 1.35 µM)	1 (≈ 2.69 µM)	0.125 (≈ 0.337 µM)
O=c1[nH]sc2c1c(=O)c1cc(F)c(-c3cccnc3F)cc1n2C1CC1	–	0.015 (≈ 0.0404 µM)	> 100	0.015 (≈ 0.0404 µM)	5.62	–	–	–	–	–	–	–	–	–	–
O=c1[nH]sc2c1c(=O)c1cc(F)c(-c3cccnc3)cc1n2C1CC1	2 (≈ 5.66 µM)	0.0035 (≈ 0.0099 µM)	> 100	0.0071 (≈ 0.0201 µM)	6.30	–	–	–	–	–	–	–	–	–	–
O=c1[nH]sc2c1c(=O)c1cc(F)c(-c3cc4ccccc4[nH]3)cc1n2C1CC1	4 (≈ 10.2 µM)	1 (≈ 2.55 µM)	9	0.06 (≈ 0.153 µM)	5.48	–	–	–	–	–	–	–	–	–	–
O=c1[nH]sc2c1c(=O)c1cc(F)c(-c3cncc(C4CCCN4)c3)cc1n2C1CC1 (configuration not stated)	8 (≈ 18.9 µM)	0.12 (≈ 0.284 µM)	25	0.06 (≈ 0.142 µM)	5.96	–	–	–	–	–	–	–	–	–	–
O=c1[nH]sc2c1c(=O)c1cc(F)c(-c3ccnc(CO)c3)cc1n2C1CC1	32 (≈ 83.5 µM)	0.14 (≈ 0.365 µM)	> 100	0.034 (≈ 0.0887 µM)	5.32	–	–	–	–	–	–	–	–	–	–
